Experimental findings from ChEMBL document CHEMBL3621042, “Design, synthesis of novel tryptophan derivatives for antiplatelet aggregation activity based on tripeptide pENW (pGlu-Asn-Trp)” (Eur J Med Chem, 2015) are described below.

The source made the active and inactive calls. No cut-off for these calls is given here. Square brackets hold non-standard residues; d marks the D form. Peptide text beside a SMILES is read from it. pGlu = O=C1CC[C@@H](C(=O)O)N1

The target in data set [1] is T1, Integrin alpha-IIb/beta-3 (Oryctolagus cuniculus) (UniProt Q9TUN4+Q9TUN3). In words: Antagonist activity at GP2b/3a receptor in New Zealand rabbit platelet-rich plasma assessed as inhibition of ADP-induced platelet aggregation at 100 uM preincubated for 1 min followed by addition of ADP by aggregometer.
Data set [2] addresses T1, Integrin alpha-IIb/beta-3 (Oryctolagus cuniculus). The data set can be described thus: Antagonist activity at GP2b/3a receptor in New Zealand rabbit platelet-rich plasma assessed as inhibition of ADP-induced platelet aggregation at 500 uM preincubated for 1 min followed by addition of ADP by aggregometer.
The test system of data set [3] is Mus musculus. In words: Toxicity in ICR mouse assessed as bleeding time at 1 mg/kg incubated for 30 mins prior to testing by tail transection method. The class given is organism-based. Particulars: in vivo, 0.5 h.
The target in data set [4] is T1, Integrin alpha-IIb/beta-3 (Oryctolagus cuniculus). As to conditions: New Zealand, Plasma, 1 to 1000 uM.
Description: Antagonist activity at GP2b/3a receptor in New Zealand rabbit platelet-rich plasma assessed as inhibition of ADP-induced platelet aggregation at 1 to 1000 uM preincubated for 1 min followed by addition of ADP by aggregometer
Data set [5] relates to Rattus norvegicus. In words: Antithrombotic activity in Sprague-Dawley rat arteriovenous shunt thrombosis model assessed as wet/dry weight reduction of thrombus at 1 mg/kg, iv incubated for 30 mins prior to testing. The class given is functional.
Data set [6] deals with Integrin alpha-IIb/beta-3 (Homo sapiens, UniProt P05106+P08514). The data set can be described thus: Antagonist activity at GP2b/3a receptor (unknown origin) assessed as inhibition of interaction with fibrinogen after 2 hrs by ELISA. The class given is protein-complex assay.
Chain of Integrin alpha-IIb/beta-3 (P05106 27-788 limits assumed): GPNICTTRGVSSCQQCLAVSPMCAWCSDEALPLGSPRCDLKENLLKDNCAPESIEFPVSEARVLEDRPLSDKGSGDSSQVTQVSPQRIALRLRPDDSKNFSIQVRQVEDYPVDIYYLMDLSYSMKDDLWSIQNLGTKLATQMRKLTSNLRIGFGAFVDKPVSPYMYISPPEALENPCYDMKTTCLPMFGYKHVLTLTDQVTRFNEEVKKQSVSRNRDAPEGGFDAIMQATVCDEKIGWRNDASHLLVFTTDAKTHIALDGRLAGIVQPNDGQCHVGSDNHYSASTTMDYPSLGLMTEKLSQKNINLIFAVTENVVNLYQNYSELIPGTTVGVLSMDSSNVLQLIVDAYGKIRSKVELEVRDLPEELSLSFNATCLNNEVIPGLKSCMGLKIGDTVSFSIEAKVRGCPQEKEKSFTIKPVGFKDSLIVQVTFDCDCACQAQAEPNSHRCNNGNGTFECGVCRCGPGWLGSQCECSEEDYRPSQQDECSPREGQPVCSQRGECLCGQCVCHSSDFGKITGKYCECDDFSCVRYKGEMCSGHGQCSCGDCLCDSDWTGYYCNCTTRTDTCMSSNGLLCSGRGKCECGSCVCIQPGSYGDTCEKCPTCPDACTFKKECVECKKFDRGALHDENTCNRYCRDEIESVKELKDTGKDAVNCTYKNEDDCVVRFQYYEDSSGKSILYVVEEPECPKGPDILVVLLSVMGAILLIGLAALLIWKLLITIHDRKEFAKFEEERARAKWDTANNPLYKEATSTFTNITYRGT
Chain of Integrin alpha-IIb/beta-3 (P08514 32-887 limits assumed): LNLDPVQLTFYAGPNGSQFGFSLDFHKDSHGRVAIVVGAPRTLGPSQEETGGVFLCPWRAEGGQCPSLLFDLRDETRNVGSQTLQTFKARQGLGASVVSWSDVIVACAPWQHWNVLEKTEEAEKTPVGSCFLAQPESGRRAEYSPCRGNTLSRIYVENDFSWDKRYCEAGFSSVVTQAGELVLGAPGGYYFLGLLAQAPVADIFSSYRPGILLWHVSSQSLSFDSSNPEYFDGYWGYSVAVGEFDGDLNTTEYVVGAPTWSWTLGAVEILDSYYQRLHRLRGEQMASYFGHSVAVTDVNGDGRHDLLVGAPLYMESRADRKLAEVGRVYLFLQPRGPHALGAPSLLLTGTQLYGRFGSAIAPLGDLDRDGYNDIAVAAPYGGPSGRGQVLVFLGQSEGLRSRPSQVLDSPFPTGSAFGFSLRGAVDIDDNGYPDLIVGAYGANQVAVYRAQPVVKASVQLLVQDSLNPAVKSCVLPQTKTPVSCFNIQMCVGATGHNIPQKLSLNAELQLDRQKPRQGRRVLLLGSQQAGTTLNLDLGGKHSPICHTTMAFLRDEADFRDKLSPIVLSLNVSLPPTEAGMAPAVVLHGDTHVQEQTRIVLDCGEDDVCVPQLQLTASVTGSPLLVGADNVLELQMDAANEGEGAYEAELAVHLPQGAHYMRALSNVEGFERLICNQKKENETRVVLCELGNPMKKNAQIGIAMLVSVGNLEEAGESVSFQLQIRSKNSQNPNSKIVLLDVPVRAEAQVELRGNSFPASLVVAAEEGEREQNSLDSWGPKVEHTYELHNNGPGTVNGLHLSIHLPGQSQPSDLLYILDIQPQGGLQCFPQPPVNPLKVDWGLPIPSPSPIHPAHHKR
Chain of Integrin alpha-IIb/beta-3 (P08514 891-1039 limits assumed): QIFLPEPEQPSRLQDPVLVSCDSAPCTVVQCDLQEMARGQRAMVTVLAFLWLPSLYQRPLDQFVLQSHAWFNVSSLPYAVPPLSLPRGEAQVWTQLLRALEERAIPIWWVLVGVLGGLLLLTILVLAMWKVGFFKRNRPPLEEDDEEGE
The subject of data set [7] is Rattus norvegicus. The data set can be described thus: Antithrombotic activity in Sprague-Dawley rat arteriovenous shunt thrombosis model assessed as wet/dry weight reduction of thrombus at 3 mg/kg, iv incubated for 30 mins prior to testing. It is filed as functional. Also on record: scale not given: the % may be the effect or the level left.
Data set [8] concerns Rattus norvegicus. In words: Antithrombotic activity in iv dosed Sprague-Dawley rat arteriovenous shunt thrombosis model assessed as wet/dry weight reduction of thrombus incubated for 30 mins prior to testing. It is filed as functional, organism-based.
Data set [9] has as its system Mus musculus. In words: Toxicity in ICR mouse assessed as bleeding time at 3 mg/kg incubated for 30 mins prior to testing by tail transection method. The class given is organism-based. Particulars: in vivo, 0.5 h.
The test system of data set [10] is Mus musculus. The data set can be described thus: Toxicity in ICR mouse assessed as bleeding time at 0.3 mg/kg incubated for 30 mins prior to testing by tail transection method. Particulars: in vivo, 0.5 h. It is filed as organism-based.

Take `O=C(N[C@@H](Cc1c[nH]c2ccc(OCCCCC3CCNCC3)cc12)C(=O)O)c1ccc([N+](=O)[O-])cc1`: the inhibition in data set [1] amounted to 43.5%.
In the case of `CCCCS(=O)(=O)N[C@@H](Cc1c[nH]c2ccc(OCCCN3CCNCC3)cc12)C(=O)O`, the inhibition in [2] was 88.9%.
On to `CCCCS(=O)(=O)N[C@@H](Cc1ccc(OCCCCC2CCNCC2)cc1)C(=O)O` [TIROFIBAN], for which, in data set [3], the Time came to 17 min. In data set [4], the inhibition result is “Active”. Further, in data set [5], the result was Active.
As to `CCCC(=O)N[C@@H](Cc1c[nH]c2ccc(OCCC3CCNCC3)cc12)C(=O)O`, in [2], the inhibition was 29.5%.
As for `CCCCS(=O)(=O)N[C@@H](Cc1c[nH]c2ccc(OCCCC3CCNCC3)cc12)C(=O)O`, the inhibition in data set [2] worked out at 73.3%.
Still for that read-out and setting: then `O=C(O)[C@H](Cc1c[nH]c2ccc(OCCCC3CCNCC3)cc12)NS(=O)(=O)c1ccccc1`, with 94.5%; and `CCCC(=O)N[C@@H](Cc1c[nH]c2ccc(OCCCC3CCNCC3)cc12)C(=O)O`, with 71.2%.
With `Cc1ccc(S(=O)(=O)N[C@@H](Cc2c[nH]c3ccc(OCCCCC4CCNCC4)cc23)C(=O)O)cc1`, the inhibition in data set [1] came out at 43.1%.
Still for that read-out and setting: the same measure for `O=C(O)[C@H](Cc1c[nH]c2ccc(OCCCCC3CCNCC3)cc12)NS(=O)(=O)c1ccc(F)cc1`: 57.1%; for `COc1ccc(C(=O)N[C@@H](Cc2c[nH]c3ccc(OCCCCC4CCNCC4)cc23)C(=O)O)cc1`: 38.3%.
Regarding `CCCCS(=O)(=O)N[C@@H](Cc1c[nH]c2ccc(OCCCCN3CCNCC3)cc12)C(=O)O`, in data set [2], the inhibition amounted to 61.2%.
As for `O=C(N[C@@H](Cc1c[nH]c2ccc(OCCCCC3CCNCC3)cc12)C(=O)O)c1cccc(F)c1`, the inhibition in data set [1] was found to be 53.4%.
As to `CCCC(=O)N[C@@H](Cc1c[nH]c2ccc(OCCCN3CCNCC3)cc12)C(=O)O`, the inhibition in data set [2] was 84.3%.
With `CCCC(=O)N[C@@H](Cc1c[nH]c2ccc(OCCN3CCN(C)CC3)cc12)C(=O)O`, the inhibition in [2] stood at 12.4%.
Turning to `CC(=O)N[C@@H](CC(N)=O)C(=O)N[C@@H](Cc1c[nH]c2ccc(OCCCC3CCNCC3)cc12)C(=O)O`, in data set [2], the inhibition was found to be 51.4%.
As to `CCCC(=O)N[C@@H](Cc1c[nH]c2ccc(OCCCCN3CCNCC3)cc12)C(=O)O`, in data set [2], the inhibition is 79.1%.
For the molecule `O=C(N[C@@H](Cc1c[nH]c2ccc(OCCCCN3CCNCC3)cc12)C(=O)O)c1ccccc1`, the inhibition in data set [2] was determined as 83.3%.
As to `NC(=O)C[C@H](NC(=O)[C@@H]1CCC(=O)N1)C(=O)N[C@@H](Cc1c[nH]c2ccccc12)C(=O)O` ([pGlu]-Asn-Trp-OH), the Activity entry in [3] is “Non-toxic”. Further, in [6], the IC50 turned out to be 12.5 µM. Further, the inhibition in [1] was 21.4%; in [2], 38.7%. In addition, the outcome in data set [5] was inactive.
As to `CCCC(=O)N[C@@H](Cc1c[nH]c2ccc(OCCN3CCNCC3)cc12)C(=O)O`, the inhibition in data set [2] amounted to 58.3%.
As to `O=C(N[C@@H](Cc1c[nH]c2ccc(OCCCCC3CCNCC3)cc12)C(=O)O)c1ccccc1`, the inhibition in data set [1] amounted to 27.9%; in [2], 96.2%.
Take `O=C(N[C@@H](Cc1c[nH]c2ccc(OCCCCC3CCNCC3)cc12)C(=O)O)c1ccc(F)cc1`: in [1], the inhibition was 54.9%.
In the case of `O=C(O)[C@H](Cc1c[nH]c2ccc(OCCCCN3CCNCC3)cc12)NS(=O)(=O)c1ccccc1`, the inhibition in data set [2] came to 57.5%.
As for `O=C(O)[C@H](Cc1c[nH]c2ccc(OCCCCC3CCNCC3)cc12)NS(=O)(=O)c1ccc(Br)cc1`, the Activity in data set [7] is 41.7%; in data set [8], “Dose-dependent effect”; in data set [5], 26.6%. Further, the Time amounted to 11.8 min in [3], 13.5 min in data set [9] and 10.6 min in [10]. Besides, in data set [1], the inhibition was determined as 81.2%.
`CC(=O)N[C@@H](CC(N)=O)C(=O)N[C@@H](Cc1c[nH]c2ccccc12)C(=O)O` (Ac-Asn-Trp-OH): the inhibition in data set [2] was found to be 35.2%.
`O=C(O)[C@H](Cc1c[nH]c2ccc(OCCCCC3CCNCC3)cc12)NS(=O)(=O)c1ccc([N+](=O)[O-])cc1`: in [1], the inhibition stood at 45.3%.
Regarding `O=C(O)[C@H](Cc1c[nH]c2ccc(OCCCCC3CCNCC3)cc12)NS(=O)(=O)c1ccccc1`, the inhibition was determined as 53.8% in data set [1] and 99.2% in data set [2].
`O=C(O)[C@H](Cc1c[nH]c2ccc(OCCCN3CCNCC3)cc12)NS(=O)(=O)c1ccccc1`: the inhibition in data set [2] stood at 55.3%.
Take `O=C(N[C@@H](Cc1c[nH]c2ccc(OCCCC3CCNCC3)cc12)C(=O)O)c1ccccc1`: in data set [2], the inhibition is 92.7%.
For `O=C(N[C@@H](Cc1c[nH]c2ccc(OCCCCC3CCNCC3)cc12)C(=O)O)c1cc(Cl)cc(Cl)c1`, the inhibition in data set [1] was 62.7%.
With `CCCCS(=O)(=O)N[C@@H](Cc1c[nH]c2ccc(OCCCCC3CCNCC3)cc12)C(=O)O`, the inhibition in data set [2] was 52.4%.
In the case of `COc1ccc(S(=O)(=O)N[C@@H](Cc2c[nH]c3ccc(OCCCCC4CCNCC4)cc23)C(=O)O)cc1`, in data set [1], the inhibition came out at 39.3%.
`CCCC(=O)N[C@@H](Cc1c[nH]c2ccc(OCCCN3CCN(C)CC3)cc12)C(=O)O`: the inhibition in data set [2] is 13.5%.
With `O=C(N[C@@H](Cc1c[nH]c2ccc(OCCCN3CCNCC3)cc12)C(=O)O)c1ccccc1`, the inhibition in data set [2] stood at 82.4%.
As for `CCCC(=O)N[C@@H](Cc1c[nH]c2ccc(OCCCCC3CCNCC3)cc12)C(=O)O`, in [2], the inhibition came out at 53.3%.
